Assay results: article PMC4792926, “G9a-mediated methylation of ERα links the PHF20/MOF histone acetyltransferase complex to hormonal gene expression” (Nature Communications, 2016)
“Also recorded” adds a separate entry of the source.

Experiments:
G9a = details: cited from earlier work
Text: Next, we sought to determine whether the methyltransferase activity of G9a is required for its co-activation of endogenous ERα target genes. […] (Supplementary Fig. 2a,b). Importantly, under these conditions, although a res ...

[1] = system: G9a, PHF20 and ERα protein levels; test: Western blot of total G9a, PHF20 and ERα in whole cell extract, HEK-293T cells; type: cell-based, human; details: 24 h; WCE western blot
Procedure: (§1) Human MCF-7, T-47D, U2OS and HEK293T cells (ATCC) were cultured in DMEM (Cellgro) supplemented with 10% fetal bovine serum (FBS, Sigma). For G9a inhibitor treatment, BIX-01294 (Sigma) was added to the medium, at the indicated concentrations, 24 h before the cells were collected. For shRNA knockdown, 293T cells were co-transfected with pMD2.G and pPAX2 (Addgene) together with pLKO-shRNA constructs or a non-targeting pLKO-shRNA (pLKO-shCtrl). Viral supernatants were harvested after 48 h. For infections, MCF-7 or T-47D cells were incubated with viral supernatants in the presence of 8 μg ml^−1 polybrene. After 48 h, puromycin (2 μg ml^−1) was added to the DMEM. Cells were grown, with selection for 5–7 days to select for stable knockdown cells before oestrogen treatment. For oestrogen treatment, cells were starved in phenol red-free DMEM supplemented with 10% charcoal-stripped FBS (Sigma) for 3–4 days, and 10 nM 17β-estradiol (Sigma) or ethanol (vehicle) were added to the medium (3 or 6 h for gene expression studies, and 15 and 45 min for ChIP experiments) before the cells were collected.

MAGE-A2 = test: qPCR of MAGE-A2, a G9a-repressed gene, in MCF-7 cells; type: cell-based, human; details: 4 and 8 μM for 24 h, mean +/- S.E.M. of two experiments
Procedure: as §1, with “For oestrogen treatment, cells were starved in phenol red-free DMEM supplemented with 10% charcoal-stripped FBS (Sigma) for 3–4 days, and 10 nM 17β-estradiol (Sigma) or ethanol (vehicle) were added to the medium (3 or 6 h for gene expression studies, and 15 and 45 min for ChIP experiments) before the cells were collected.” left out
Reverse transcription and real-time PCR were performed as described previously. mRNA was prepared using the RNeasy Plus kit (Qiagen) and reverse transcribed using the First Strand Synthesis kit (Invitrogen). Quantitative real-time RT–PCR (qPCR) was performed on an ABI 7500-FAST Sequence Detection System using the Power SYBR Green PCR Master Mix (Applied Biosystems). Gene expression was calculated following normalization to GAPDH levels using the comparative Ct (cycle threshold) method and is shown as ‘Fold' relative to the expression of each gene in the control cells without E2 treatment that was arbitrarily set as ‘1'. […]

endogenous G9a = test: Global histone H3K9me2 western blot (endogenous G9a activity) in MCF-7 cells; type: cell-based, human; details: 4 and 8 μM for 24 h
Procedure: as §1

MCF-7 cells [2] = test: Colony formation assay, MCF-7; type: cell-based, human
Procedure: MCF-7 cells treated with shRNAs or BIX-01294 were seeded in six-well plates (1,000 cells per well) and grown in DMEM plus 10% FBS at 37 °C for 10–14 days. For anchorage-independent cell growth assays, 4,000 MCF-7 cells were suspended in DMEM containing 0.4% agar and seeded into six-well plates pre-coated with a base layer of 0.6% agar and grown at 37 °C for 4 weeks. Cells were fixed, stained with 0.005% crystal violet blue and photographed. Colony numbers were counted using ImageJ software with size cutoff of 75 μm. Results were quantitated from three to six wells or three to five views of each well from three independent replicates.

[3] = system: ERα target genes (GREB1, PR, TFF1); test: qPCR of E2-induced ERα target gene expression in MCF-7 cells; type: cell-based, human
Procedure: as §1
Reverse transcription and real-time PCR were performed as described previously. mRNA was prepared using the RNeasy Plus kit (Qiagen) and reverse transcribed using the First Strand Synthesis kit (Invitrogen). Quantitative real-time RT–PCR (qPCR) was performed on an ABI 7500-FAST Sequence Detection System using the Power SYBR Green PCR Master Mix (Applied Biosystems). Gene expression was calculated following normalization to GAPDH levels using the comparative Ct (cycle threshold) method and is shown as ‘Fold' relative to the expression of each gene in the control cells without E2 treatment that was arbitrarily set as ‘1'. The primer sequences used for RT–PCR are listed in Supplementary Table 5.

MCF-7 cells [4] = test: MCF-7 cell proliferation (cell counting); type: cell-based, human; details: different doses; cell numbers counted for 6 days
Procedure: Human MCF-7, T-47D, U2OS and HEK293T cells (ATCC) were cultured in DMEM (Cellgro) supplemented with 10% fetal bovine serum (FBS, Sigma). For G9a inhibitor treatment, BIX-01294 (Sigma) was added to the medium, at the indicated concentrations, 24 h before the cells were collected. For shRNA knockdown, 293T cells were co-transfected with pMD2.G and pPAX2 (Addgene) together with pLKO-shRNA constructs or a non-targeting pLKO-shRNA (pLKO-shCtrl). Viral supernatants were harvested after 48 h. For infections, MCF-7 or T-47D cells were incubated with viral supernatants in the presence of 8 μg ml^−1 polybrene. After 48 h, puromycin (2 μg ml^−1) was added to the DMEM. […]
(a, b) Growth curves of control (shCtrl) and G9a knockdown (shG9a) MCF-7 cells. Cells from 6 wells were counted in triplicates every two days, for 8 days (a) or 6 days (b) after seeding.
(c, d) G9a is required for cell growth in colony formation assays. […] Colonies arising from control and G9 knockdown MCF-7 cells were counted two weeks after seeding (d)
(e) G9a depletion reduces the anchorage-independent growth of MCF-7 cells. […] After four weeks, colonies were counted. At least 5 fields of view were counted for each well.
(f) The catalytic activity of G9a is required for cell growth. MCF-7 cells treated with the indicated doses of BIX-01249 were counted 6 days after seeding. […]

PHF20–ERα interaction = test: Co-IP of ERα and PHF20 in HEK-293T cells; type: cell-based, human; details: 24 h before co-IP; Flag-ERα and Myc-PHF20 co-transfected HEK-293T
Procedure: as §1
For immunoprecipitation (IP) experiments, each cell fraction was incubated with the anti-FLAG M2-conjugated agarose beads overnight at 4 °C. The beads were washed 3–6 times with cell lysis buffer, and the bound proteins were eluted in SDS buffer and analysed by western blot. […]

COc1cc2nc(N3CCCN(C)CC3)nc(NC3CCN(Cc4ccccc4)CC3)c2cc1OC [BIX-01294]
G9a inhibition selectivity (G9a): selective G9a inhibitor | total levels of G9a, PHF20 and ERα [1]: not affected | derepression of MAGE-A2 (MAGE-A2): derepression of MAGE-A2; also recorded: induces the derepression | enzymatic activity of endogenous G9a (global H3K9 methylation levels) (endogenous G9a): effectively inhibited; also recorded: reduces global H3K9me2 levels | colony formation (MCF-7 cells [2]; 0.5 or 1 μM, 10–14 days, crystal violet): greatly suppressed colony formation | cell survival (MCF-7 cells [2]; indicated doses, MCF-7 colonies, at least three experiments): inhibits cell survival | E2-induced activation of GREB1 and PR under BIX-01294 ([3]; 4 or 8 μM BIX-01294, 10 nM E2 for 3 h, qPCR, two experiments): clearly impaired by BIX-01294 in a dose-dependent manner; also recorded: inhibits E2-induced activation of GREB1 and PR | residual E2-dependent response under BIX-01294 ([3]; BIX-01294-treated MCF-7 cells, E2): a residual E2 response was sufficient to maintain GREB1 gene expression; also recorded: there was still an E2-dependent response | E2-dependent gene activation under BIX-01294 ([3]; MCF-7, BIX-01294-treated (discussion)): greatly reduced E2-dependent gene activation | cell proliferation (MCF-7 cells [4]): inhibited cell proliferation in a dose-dependent manner | PHF20–ERα interaction (PHF20–ERα interaction): markedly diminished the PHF20–ERα interaction; also recorded: diminishes the interaction between ERα and PHF20 in cells
